Experimental data: patent US12703693B2, “Crystalline forms of N-{3-[(1S)-1-{[6-(3,4-dimethoxyphenyl)pyrazin-2-yl]amino}ethyl]phenyl}-5-methylpyridine-3-carboxamide and related products and methods” (GB002, INC., priority 2021, dated 2026)
Values after ≈ are worked out from the molar mass of the structure shown. Each block holds one compound with its values, some of them ahead of it.

Legend:
[1] = Solvent solubility of amorphous Compound 1 (solvent aliquot addition); type: physicochemical; conditions: thermodynamic from solid
Experimental: Test solvent/solvent system (50 μL) was added to the vial and the mixture assessed for dissolution. If no dissolution was apparent, the mixture was heated to ca. 40° C. and reassessed; if dissolution was still incomplete, the cycle was repeated and an additional 50 μL of solvent added. After 300 μL of solvent had been added, 100 μL aliquots were added. This procedure was continued until complete dissolution was observed or until 1 mL of solvent had been added.

[2] = Fragility and relaxation time (Tg vs heating rate by DSC); type: physicochemical; conditions: 25° C.; calculated from fragility parameters (γ=0.9, τ0=10^−14 s)
Experimental: Fragility and relaxation time parameters were determined by measuring Tg as a function of heating rate. Four heating rates were used: 1, 5, 10 and 20° C./min. DSC measurements were made by: • (1) heating at 10° C./min to 100° C.; • (2) isothermal hold for 5 min; • (3) cooling at 10° C./min to −20° C.; • (4) isothermal hold for 5 min; and • (5) heating at 10° C./min to 130° C.
The slope was used to calculate the activation enthalpy (ΔH*), from which the fragility parameters m, D and T0 were calculated, according to the following equations:
Using the fragility parameters, the initial structural relaxation time was calculated according to the following formula, (using γ=0.9 and τ0=10^−14 s) and determined to be 3 months at 25° C.

[3] = Solubility in ethyl acetate and ethyl acetate+2% water (Crystal16 parallel crystallizer); type: physicochemical; conditions: presence of water (2%)
Experimental: The solubility of crystalline Forms A and B of Compound 1 in ethyl acetate was determined using a Crystal16® parallel crystallizer. Two heating rates were used, 1° C./min and 0.5° C./min. The suspensions were heated to 78° C. and cooled to 10° C. at 0.2° C./min and maintained for 2 h at 10° C. […] The suspensions were heated to 78° C. at 1° C./min, cooled to 10° C. at 0.2° C./min and maintained for 2 h at 10° C. FIG. 15 compares the resulting solubility curve with the pure ethyl acetate.

[4] = Sample stress, 40° C. and 75% relative humidity, XRPD; type: physicochemical; conditions: open vial, 6 days
Experimental: Two samples, one containing pure crystalline Form A of Compound 1 and a second containing a mixture of crystalline Forms A and B of Compound 1 were placed in an open vial at 40° C. and 75% relative humidity for 6 days and then analyzed by XRPD. The results are presented in Table 11; no changes by XRPD were observed.

[5] = Gravimetric Vapor Sorption (GVS); type: physicochemical; conditions: 25° C.
Experimental: Approximately 10-20 mg of crystalline Form A of Compound 1 was placed into a mesh vapor sorption balance pan and loaded into an IGASorp Moisture Sorption Analyzer balance by Hiden Analytical. The sample was subjected to a ramping profile from 40-90% relative humidity (RH) at 10% increments, maintaining the sample at each step until a stable weight had been achieved (98% step completion, minimum step length 30 minutes, maximum step length 60 minutes) at 25° C. After completion of the sorption cycle, the sample was dried using the same procedure to 0% RH, and finally taken back to the starting point of 40% RH. Two cycles were performed. The weight change during the sorption/desorption cycles were plotted, allowing for the hygroscopic nature of the sample to be determined.

[6] = Physical stability, 1 week storage (HPLC purity, XRPD); type: physicochemical
Experimental: Two vials each were then stored for 1 week under various conditions of temperature and relative humidity.
XRPD analysis was performed to detect changes in crystallinity.

[7] = Particle size distribution (PSD) of micronized / spray dried material; type: physicochemical; conditions: Example 9 wet milling, 5% w/w in water, 45 cycles/P = 50 bar
Excerpt: Crystalline Compound 1 Form A was fed into a grinding chamber tangentially by vacuum created by the venturi system using pressurized nitrogen (venturi pressure, Pvent, above grind pressure, Pgrind). Compressed nitrogen was also used for the jet nozzles in the walls of the chamber. The feed flow rate was set and controlled automatically (by a gravimetric feeder) or manually. Once inside the milling chamber particles were accelerated by a series of perimeter jets, in a spiral movement. The compressed fluid issuing from the nozzles expands from Pgrind and imparts very high rotational speeds in the chamber. The micronizing effect occurs when the slower incoming particles and the faster particles in the spiral path collide. While centrifugal force retains the larger particles at the periphery of the milling chamber, the smaller particles exit with the exhaust gas from the center of the chamber. Five 20 g trials were performed in a 1.5″ jet mill, under varying feed rates (Ffeed,JM,) and pressures; the optimal conditions were used for a sixth larger scale 50 g trial.
Aqueous suspensions of crystalline Compound 1 Form A in water (5% w/w or 10% w/w) were processed via microfluidization with a HPH18 (M-110EH-30 Microfluidics Pilot) wet milling apparatus equipped with an auxiliary processing module (200 μm) and an interaction chamber (Z-shape, 100 μm). The unit was initiated at a given pressure for the first five cycles to perform a pre-milling of the suspension, using only the auxiliary processing module (200 μm). The interaction chamber (100 μm) was then introduced and the suspension processed at a defined pressure. The temperature was controlled, using a reactor jacket, and recorded. To address clogging of the micronization chambers (observed after ~25 cycles), the pressure was increased from 25 to 60 bar.
The material isolated from the first run 1A, was dived into three (1BI, 1BII and 1BIII); runs 2A and 3A were spray dried to produce samples 2B and 3B, respectively. […] Runs 2B and 3B were additionally characterized for specific surface area (SSA). See Table 27 (runs 1BI, 1BII and 1BIII) and Table 28 (runs 2B and 3B) for conditions and product characterization. […]
Two 250 g batches of crystalline Compound 1 Form A were each suspended in water (5 L) and wet polished in a wet milling HPH18 (M-110EH-30 Microfluidics Pilot) apparatus, equipped with an auxiliary processing module (200 μm) and an interaction chamber (Z-shape, 100 μm). The unit was initiated at 50 bar for the first five cycles to perform a pre-milling of the suspension, using only the auxiliary processing module (200 μm). The interaction chamber (100 μm) was then introduced and the suspension processed at 50 bar (increased to 60 or 70 bar if the system clogged). The temperature was maintained at 18-28° C. using a reactor jacket. The Reactor agitation speed was 280 RPM (batch 1) and 390 RPM (batch 2). The first batch was micronized for 25 cycles and particle size distribution analyzed after 5, 15 and 20 cycles; the second batch was micronized for […] and particle size distribution analyzed after 15, 20, 25 and 35 cycles.
Both batches were then spray dried (separately) using a Büchi spray dryer, using an open loop system. The unit was equipped with a two-fluid nozzle: cap and orifice diameters of 1.5 and 0.7 mm, respectively operated with nitrogen. The aspirator, blowing nitrogen, was set at 100% capacity (~40 kg/h). The suspension feed flow was set to 8 ml/min, high and the drying outlet temperature to 75±1° C. […] Total yield (both batches combined) was 267 g (53%).
Two 250 g batches (250 g and 238 g; 488 g total) of crystalline Compound 1 Form A coated with ~2% L-leucine were each suspended in water (5 L) and wet polished in a wet milling HPH18 (M-110EH-30 Microfluidics Pilot) apparatus, under the same process as described in the previous example. The first batch was micronized for 25 cycles and the second for 30 cycles. […]

physchem = conditions: 22 °C, aqueous with cosolvent or surfactant or cyclodextrin, thermodynamic from solid
Experimental: (§1) Phosphate Buffer contained NaH2PO4·H2O (0.345 g), sodium hydroxide aqueous solution (0.2M, 10.001 mL), sodium chloride (0.576 g) and water (qs ad 100.0 mL); • Ethanol/Water (30/70) contained Ethanol (30.0 g) and Water (70.0 g); • Ethanol/Water (40/60) contained Ethanol (40.0 g) and Water (60.0 g); • Ethanol/Water (50/50) contained Ethanol (50.0 g) and Water (50.0 g); and • Ethanol/Water (45/55) contained Ethanol (4.50 g) and Water (5.51 g).

[8] = Solubility in 25 mM phosphate buffer pH 7.4; conditions: phosphate buffer, pH 7.4
Experimental: as §1

[9] = Thermodynamic solubility in pH 3, 4.5, 6.8 buffers and deionized water; conditions: for pH (24 h): ~24 h agitation at ambient temperature

solubility ([1]; 2-propanol, organic solvent or mixture): ≥ 200 mg/mL | solubility ([1]; EtOAc/tBME (75:25% v/v), organic solvent or mixture): ≥ 200 mg/mL | solubility ([1]; acetone, organic solvent or mixture): ≥ 200 mg/mL | solubility ([1]; acetonitrile, organic solvent or mixture): ≥ 200 mg/mL | solubility ([1]; chloroform, organic solvent or mixture): ≥ 200 mg/mL | solubility ([1]; ethanol, organic solvent or mixture): ≥ 200 mg/mL | solubility ([1]; ethanol/water (95:5% v/v), organic solvent or mixture): ≥ 200 mg/mL | solubility ([1]; ethyl acetate, organic solvent or mixture): ≥ 200 mg/mL | solubility ([1]; heptane, organic solvent or mixture): < 10 mg/mL | solubility ([1]; methanol, organic solvent or mixture): ≥ 200 mg/mL | solubility ([1]; methyl ethyl ketone, organic solvent or mixture): ≥ 200 mg/mL | solubility ([1]; organic solvent or mixture, EtOAc/tBME (25:75% v/v), sample heated to 40° C.): ~12.5 mg/mL (≈ 26.6 mM) | solubility ([1]; organic solvent or mixture, EtOAc/tBME (50:50% v/v), sample heated to 40° C.): ~100 mg/mL (≈ 213 mM) | solubility ([1]; tert-butyl methyl ether, organic solvent or mixture): < 10 mg/mL | solubility ([1]; tetrahydrofuran, organic solvent or mixture): ≥ 200 mg/mL | solubility ([1]; toluene, organic solvent or mixture): < 10 mg/mL | solubility ([1]; water): < 10 mg/mL | initial structural relaxation time [2]: 3 months
Compound: COc1ccc(-c2cncc(N[C@@H](C)c3cccc(NC(=O)c4cncc(C)c4)c3)n2)cc1OC [Amorphous Compound 1, N-{3-[(1S)-1-{[6-(3,4-dimethoxyphenyl)pyrazin-2-yl]amino}ethyl]phenyl}-5-methylpyridine-3-carboxamide]

solubility in ethyl acetate+2% water compared to pure ethyl acetate [3]: significantly more soluble | XRPD observation after stress conditions [4]: No change - all Form A | hygroscopic nature (GVS) ([5]; two sorption/desorption cycles): slightly hygroscopic | GVS mass increase ([5]; up to 90% relative humidity): ~0.7% | Purity (HPLC) ([6]; 1 week, 25° C./60% relative humidity (open vial)): ~99.1% | Purity (HPLC) ([6]; 1 week, 40° C./75% relative humidity (open vial)): ~99.1% | Purity (HPLC) ([6]; 1 week, 80° C. (closed vial)): ~99.0% | Purity (HPLC) ([6]; 1 week, Ambient light/temperature (closed vial)): ~98.9% | Purity (HPLC) ([6]; Before storage): ~99.3% | crystalline form by XRPD after storage ([6]; one week, ambient, 25° C., 40° C., 80° C., relative humidity ambient, 60%, 75%): maintained | Dv10 [7]: 0.1 μm | Dv50 [7]: 1.0 μm | Dv90 [7]: 3.5 μm | solubility (physchem): 2 to 350 mg/mL (≈ 4.26 to 745 mM) | solubility in phosphate buffer [8]: moderate solubility | pH (Initial) ([9]; Water, after addition): 6.78 | pH (24 h) ([9]; Water): 6.73 | Compound 1 concentration in filtered mother liquors (HPLC) ([9]; all buffers (pH 3, 4.5, 6.8) and water, ambient temperature, ~24 h): < 0.05 mg/mL | pH (Initial) ([9]; pH 3 buffer, after buffer addition): 2.96 | pH (24 h) ([9]; pH 3 buffer): 2.94 | pH (Initial) ([9]; pH 4.5 buffer, after buffer addition): 4.55 | pH (24 h) ([9]; pH 4.5 buffer): 4.55 | pH (Initial) ([9]; pH 6.8 buffer, after buffer addition): 6.83 | pH (24 h) ([9]; pH 6.8 buffer): 6.79
Compound: COc1ccc(-c2cncc(N[C@@H](C)c3cccc(NC(=O)c4cncc(C)c4)c3)n2)cc1OC [Form A, N-{3-[(1S)-1-{[6-(3,4-dimethoxyphenyl)pyrazin-2-yl]amino}ethyl]phenyl}-5-methylpyridine-3-carboxamide]
